Earlier results as cited in patent US20250000878A1 (priority 2014, published 2025).

What was measured:
[1] = in vivo
beta amyloid = conditions: AD transgenic mice
[2] = tested on: patients with mild to moderate VaD; conditions: 100 mcg twice daily for 12 weeks
[3] = 0.2 mg pure huperzine A orally
[4] = tested on: patients with possible or probable AD; conditions: 0.1-0.2 mg twice daily, active group

Cn1c(=O)c2c(ncn2C)n(C)c1=O [Caffeine]
half life [1]: 4 to 6 h
time to peak blood levels [1]: within one hour
reduction of beta amyloid deposition, entorhinal cortex (beta amyloid): 46%
reduction of beta amyloid deposition, hippocampus (beta amyloid): 40%

C[C@]12CC[C@H](O)CC1=CC[C@@H]1[C@@H]2CC[C@]2(C)C(=O)CC[C@@H]12 [DHEA, dehydroepiandrosterone]
insulin resistance (elderly men and women; 50 mg per day, one year): significant improvement
reduction of visceral fat measured by MRI (elderly men and women; 50 mg per day, one year, mean age 70 years): about 10%
circulating cytokines TNF alpha and IL-6 (elderly men and women; vs placebo controls): significant decrease

C/C=C1\[C@H]2C=C(C)C[C@]1(N)c1ccc(=O)[nH]c1C2 [Huperzine A]
cognitive function [2]: significantly improved
terminal half life [3]: approximately 6 hours
proportion of patients with a four point improvement on the ADAS-cog [4]: 56%
